Patent publication US20180028690A1, “INDOCYANINE GREEN FORMULATIONS AND METHODS FOR IMAGING OF THE URINARY PATHWAYS” (Yissum Reseach Development Company of the Herbrew …, priority 2015, published 2018)
Where “and” joins values, the source holds several entries; their conditions need not be identical. Equal entries are not always repeated.

Legend:
[1] = Whole body NIR imaging (IVIS Kinetic) after intravenous injection; format: in vivo, Female FVB mice
Protocol: Mice were shaved under isoflurane (1-2%, v/v) anesthesia and underwent baseline scans using an IVIS Kinetic® in vivo imaging system (Caliper Life Sciences, Hopkinton, Mass., USA). Two hundred μl of 8 mg/kg Phospholipon® 50 ICG liposomes or the free compound in 2 mM sucrose buffer (phosphate buffer pH 7, with 9.3% w/w sucrose) were injected into the tail vein and the mice were repetitively scanned over a time period of up to 120 min.
Analysis of in vivo ICG pharmacokinetics (PK), including region of interest (ROI) placement (Living Image; PerkinElmer, Waltham, Mass., USA; (Schneider et al., 2012)) and calculation of the area under the concentration-time curve (AUC) from the time of injection to the time of the last measurement (Phoenix WinNonlin; Certara; St. Louis, Mo., USA), was conducted as previously described (Portnoy et al., 2012). Partial areas were calculated for the AUC between the time of ICG injection (0 min) and 60 or 120 min after injection (AUC0-60 min and AUC0-120 mm, respectively). Data are presented as means±SD. The non-parametric Mann-Whitney or Kruskal-Wallis tests, as appropriate, were used to determine the statistical significance of difference (p<0.05) between experimental groups (InStat; GraphPad, La Jolla, Calif., USA).

[2] = Imaging of surgically exposed kidneys and ureters after midline laparotomy; format: in vivo, Female FVB mice; conditions: P<0.01
Protocol: An additional cohort of animals was used for further studies of the accumulation of liposomal ICG in the urinary system. Liposomal or free ICG was injected into the tail vein, and 3 min later, mice were treated with high dose pentobarbital administered intraperitoneally. Overall time of active circulation after the ICG injection was about 10 min. Thereafter, mice were subjected to midline laparotomy with full exposure of the retroperitoneum. The ureters were identified in their origin from the kidneys, and distally clipped or loosely tied for identification. The mice were also hysterectomyzed to ease the urinary bladder identification. Subsequently, the animals were scanned by the Typhoon FLA 9500 biomolecular imager. Each experiment was repeated at least three times.

[3] = Fluorescence spectra and relative quantum yield of ICG-adsorbed liposomes vs ICG in aqueous solution; format: physicochemical
Protocol: The fluorescence spectra of the ICG-adsorbed liposomes prepared were evaluated in comparison to those of ICG in aqueous solution.
The relative quantum yield was calculated according to the following equation (Fery-Forgues and Lavabre, 1999):
where φ is the quantum yield, F is the area under the emission peak (expressed in number of photons), A is absorbance at the excitation wavelength, and n is the refractive index of the solvents. The subscript x denotes the respective values of the sample (liposome-ICG), and s denotes standard (free ICG in buffer).

[4] = Stability of ICG absorption at light and at dark over time; format: physicochemical; conditions: aqueous solution or adsorbed to liposomes
Protocol: The red shift is accompanied with quenching of fluorescence, i.e., the larger the red shift the lower the fluorescence intensity. Because the fluorescence intensity of ICG-liposomes was greater than that of unbound ICG molecules (aqueous solution), the quantum yield ratio between the two states in which ICG is present was determined, for a concentration of 1.28×10^−3 mM. ICG is poorly stable in aqueous solutions due to degradation, and therefore, in order to evaluate the stability of the ICG-adsorbed liposomes, the absorption of this fluorescent probe, when dissolved in an aqueous solution or adsorbed to the liposomes, was measured at light and at dark over time.

[5] = Ureter imaging with ICG-HPβCD inclusion complex vs free ICG (Typhoon imager); format: in vivo, female FVB mice; conditions: 8 mg/kg ICG, 10 min post injection
Protocol: 60 mg of ICG (Acros) was solubilized in 12.5 ml of DDW. 2 ml of ICG solution were added to 10 ml of phosphate buffer (pH 7, 2 mM, and sucrose 9.3% w/w). 18.5 mg of HPβCD (Acros) were added to ICG buffered solution and mixed for 10 h at 4° C. […] Mice were sacrificed 10 min post injection and imaged by Typhoon imager (General Electric).

[6] = literature (Bax 1980; Cherrick 1960); cited from earlier work

Structure (SMILES): CC1(C)C(/C=C/C=C/C=C/C=C2\N(CCCCS(=O)(=O)O)c3ccc4ccccc4c3C2(C)C)=[N+](CCCCS(=O)(=O)[O-])c2ccc3ccccc3c21 [free ICG, indocyanine green]
- urinary bladder/feet AUC0-60 min ratio of emission intensity ([1]; 8 mg/kg ICG i.v., feet-normalized AUC, 0-60 min): 2.3±0.5
- urinary bladder/feet AUC0-120 min ratio of emission intensity ([1]; 8 mg/kg ICG i.v., feet-normalized AUC, 0-120 min): 2.3±0.4
- emission intensity AUC of the urinary bladder relative to that of the feet ([1]; control mice, 8 mg/kg i.v.): 2.3 fold
- ureteral emission normalized to renal emission (ureters/kidneys ratio) [2]: 0.56±0.10 and 0.5
- ICG emission peak in water, shift ([3]; concentrations above 6.4×10^−3 mM): up to 814 nm
- ICG emission peak in water ([3]; concentrations less than 6.4×10^−3 mM): 805 nm
- absorption over time at light and at dark (stability) [4]: decreases over time both in light and in dark
- labelling of ureters [5]: did not
- renal excretion [5]: negligibly excreted in the urine
- half life in plasma [6]: in the minutes range
- renal elimination after systemic administration [6]: negligible
